Square brackets hold non-standard residues; d marks the D form. Peptide text beside a SMILES is read from it. hArg = N=C(N)NCCCC[C@H](N)C(=O)O

Test [1] has as its target T1, RXFP1 (Homo sapiens, UniProt Q9HBX9).
T1 construct: expressed in transfected cells; host or cells: HEK-293T
T1 sequence (Q9HBX9 1-757): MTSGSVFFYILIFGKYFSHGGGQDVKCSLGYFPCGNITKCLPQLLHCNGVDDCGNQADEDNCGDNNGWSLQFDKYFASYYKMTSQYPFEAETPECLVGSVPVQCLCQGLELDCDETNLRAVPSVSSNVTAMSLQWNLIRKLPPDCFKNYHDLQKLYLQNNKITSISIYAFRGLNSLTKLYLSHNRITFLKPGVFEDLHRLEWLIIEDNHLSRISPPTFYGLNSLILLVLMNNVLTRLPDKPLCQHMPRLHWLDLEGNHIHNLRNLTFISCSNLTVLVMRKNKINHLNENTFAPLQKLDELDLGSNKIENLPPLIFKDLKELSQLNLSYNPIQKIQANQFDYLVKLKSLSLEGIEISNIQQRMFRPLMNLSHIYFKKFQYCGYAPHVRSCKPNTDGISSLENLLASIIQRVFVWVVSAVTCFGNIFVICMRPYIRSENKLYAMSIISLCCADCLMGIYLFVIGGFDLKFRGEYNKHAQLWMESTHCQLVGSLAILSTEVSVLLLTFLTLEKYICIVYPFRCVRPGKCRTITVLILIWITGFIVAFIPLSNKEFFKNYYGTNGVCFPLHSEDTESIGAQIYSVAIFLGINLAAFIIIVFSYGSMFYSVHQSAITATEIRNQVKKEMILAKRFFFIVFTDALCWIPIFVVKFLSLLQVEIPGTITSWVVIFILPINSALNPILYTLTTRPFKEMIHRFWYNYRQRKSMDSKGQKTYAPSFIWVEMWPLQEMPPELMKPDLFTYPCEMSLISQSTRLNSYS
The test is described as follows: Eu-labelled H2 relaxin competition binding, whole HEK-293T cells stably transfected with RXFP1. To be noted: HEK-293T cells stably transfected with RXFP1; competition with Eu-labelled H2 relaxin; mean ± S.E; n ≥ 3; read-out: RXFP1 Eu-H2 pKi (converted). The protocol:
Human embryonic kidney (HEK-293T) cells stably transfected with RXFP1 were cultured in RPMI 1640 medium supplemented with 10% fetal calf serum, 100 μg/ml penicillin, 100 μg/ml streptomycin and 2 mM L-glutamine and plated into 96-well pre-coated with poly-L-lysine for whole cell binding assays. Competition binding experiments were conducted with Eu^3+-labelled H2 relaxin (as per Shabanpoor et al., 2012, Biochem Biophys Res Commun. 420, 253-256) in the absence or presence of increasing concentrations of unlabelled relaxin-2 B chain derivatives. Nonspecific binding was determined with an excess of unlabelled peptides (500 nM H2 relaxin). Fluorescent measurements were recorded at an excitation wavelength of 340 nm and emission of 614 nm on a Victor plate reader (Perkin-Elmer Inc.). […] Statistical differences in pIC50 values were analyzed using one-way analysis of variance coupled to Newman Keul's multiple comparison test for multiple group comparisons in GraphPad Prism 6.

Test [2] deals with T1, RXFP1. The experiment in a line: cAMP reporter gene assay (pCRE β-galactosidase) in HEK-293T cells transfected with RXFP1. Particulars: HEK-293T cells co-transfected with RXFP1 and pCRE β-galactosidase reporter; n ≥ 3; read-out: RXFP1 cAMP pEC50 (converted). The format is cell-based. The protocol: The ability of the relaxin-2 B chain peptide derivatives generated in Example 1 to stimulate cAMP response was also evaluated, using a cAMP reporter gene assay as described previously (Scott et al., 2006, J Biol Chem. 281, 34942-34954). HEK-293T cells co-transfected with either RXFP1 or RXFP2, or 7BP cells, and a pCRE β-galactosidase reporter plasmid were plated in 96-well plates. After 24 hours, the co-transfected cells were incubated with increasing concentrations of peptides in parallel to 10 nM of H2 relaxin or INSL3 for RXFP1- or RXFP2-transfected cells respectively. The amount of cAMP-driven β-galactosidase expression in each well was assessed with a colorimetric assay measuring absorbance at 570 nm on a microplate spectrophotometer. Ligand-induced cAMP stimulation was expressed as a percentage of maximal response of H2 relaxin or INSL3 for RXFP1 and RXFP2 cells respectively. Each data point was measured in triplicate and each experiment conducted independently at least three separate times. Statistical differences in pEC50 values were analyzed using one-way ANOVA coupled to Newman Keul's multiple comparison test for multiple group comparisons in GraphPad Prism 6.

As to `CC[C@H](C)[C@H](NC(=O)[C@H](C)NC(=O)[C@@H](NC(=O)[C@H](CCC(N)=O)NC(=O)[C@H](C)NC(=O)[C@H](CCCNC(=N)N)NC(=O)[C@@H](NC(=O)[C@H](CC(C)C)NC(=O)[C@H](CCC(=O)O)NC(=O)[C@H](CCCNC(=N)N)NC(=O)CNC(=O)[C@H](CO)NC(=O)[C@H](CC(C)C)NC(=O)[C@H](CCCCN)NC(=O)[C@@H](NC(=O)[C@@H](NC(=O)[C@H](CCC(=O)O)NC(=O)[C@H](CCC(=O)O)NC(=O)[C@H](CCSC)NC(=O)[C@H](Cc1c[nH]c2ccccc12)NC(=O)[C@H](CO)NC(=O)[C@@H](N)CC(=O)O)C(C)C)[C@@H](C)CC)C(C)C)[C@@H](C)CC)C(=O)N[C@@H](CO)C(=O)NCC(=O)N[C@@H](CCSC)C(=O)N[C@@H](CO)C(=O)N[C@H](C(=O)N[C@@H](Cc1c[nH]c2ccccc12)C(=O)N[C@@H](CO)C(=O)N[C@@H](CCCCN)C(=O)N[C@@H](CCCNC(=N)N)C(=O)N[C@@H](CO)C(=O)N[C@@H](CC(C)C)C(N)=O)[C@@H](C)O` [B1-33 C11.23S] (H-DSWMEEVIKLSGRELVRAQIAISGMSTWSKRSL-NH2), the Ki at RXFP1 [1] was 4.68 µM. Besides, at RXFP1 [2], the EC50 was 7.94 µM.

Turning to `CC[C@H](C)[C@H](NC(=O)[C@H](C)NC(=O)[C@@H](NC(=O)[C@H](CCC(N)=O)NC(=O)[C@H](C)NC(=O)[C@H](CCCNC(=N)N)NC(=O)[C@@H](NC(=O)[C@H](CC(C)C)NC(=O)[C@H](CCC(=O)O)NC(=O)[C@H](CCCNC(=N)N)NC(=O)CNC(=O)[C@H](CO)NC(=O)[C@H](CC(C)C)NC(=O)[C@H](CCCCN)NC(=O)[C@@H](NC(=O)[C@@H](N)C(C)C)[C@@H](C)CC)C(C)C)[C@@H](C)CC)C(=O)N[C@@H](CO)C(=O)NCC(=O)N[C@@H](CCSC)C(=O)N[C@@H](CO)C(=O)N[C@H](C(=O)N[C@@H](Cc1c[nH]c2ccccc12)C(=O)N[C@@H](CO)C(N)=O)[C@@H](C)O` [B7-29 C11.23S] (H-VIKLSGRELVRAQIAISGMSTWS-NH2; N-terminus assumed), the Ki on RXFP1 [1] is greater than 10 µM. For the same compound, on RXFP1 [2], the EC50 is greater than 10 µM.

As to `CC[C@H](C)[C@H](NC(=O)[C@H](C)NC(=O)[C@@H](NC(=O)[C@H](CCC(N)=O)NC(=O)[C@H](C)NC(=O)[C@H](CCCCNC(=N)N)NC(=O)[C@@H](NC(=O)[C@H](CC(C)C)NC(=O)[C@H](CCC(=O)O)NC(=O)[C@H](CCCNC(=N)N)NC(=O)CNC(=O)[C@H](CO)NC(=O)[C@H](CC(C)C)NC(=O)[C@H](CCCCN)NC(=O)[C@@H](NC(=O)[C@@H](N)C(C)C)[C@@H](C)CC)C(C)C)[C@@H](C)CC)C(=O)N[C@@H](CO)C(=O)NCC(=O)N[C@@H](CCSC)C(=O)N[C@@H](CO)C(=O)N[C@H](C(=O)N[C@@H](Cc1c[nH]c2ccccc12)C(=O)N[C@@H](CO)C(=O)N[C@@H](CCCCN)C(=O)N[C@@H](CCCNC(=N)N)C(=O)N[C@@H](CO)C(=O)N[C@@H](CC(C)C)C(N)=O)[C@@H](C)O` [B7-33 C11.23S R17HR] (H-VIKLSGRELV[hArg]AQIAISGMSTWSKRSL-NH2), on RXFP1 [1], the Ki was 0.302 µM. In addition, the EC50 on RXFP1 [2] is greater than 10 µM.

Take `CC[C@H](C)[C@H](NC(=O)[C@H](C)NC(=O)[C@@H](NC(=O)[C@H](CCC(N)=O)NC(=O)[C@H](C)NC(=O)[C@H](CCCCN)NC(=O)[C@@H](NC(=O)[C@H](CC(C)C)NC(=O)[C@H](CCC(=O)O)NC(=O)[C@H](CCCNC(=N)N)NC(=O)CNC(=O)[C@H](CO)NC(=O)[C@H](CC(C)C)NC(=O)[C@H](CCCCN)NC(=O)[C@@H](NC(=O)[C@@H](N)C(C)C)[C@@H](C)CC)C(C)C)[C@@H](C)CC)C(=O)N[C@@H](CO)C(=O)NCC(=O)N[C@@H](CCSC)C(=O)N[C@@H](CO)C(=O)N[C@H](C(=O)N[C@@H](Cc1c[nH]c2ccccc12)C(=O)N[C@@H](CO)C(=O)N[C@@H](CCCCN)C(=O)N[C@@H](CCCNC(=N)N)C(=O)N[C@@H](CO)C(=O)N[C@@H](CC(C)C)C(N)=O)[C@@H](C)O` [B7-33 C11.23S R17K] (H-VIKLSGRELVKAQIAISGMSTWSKRSL-NH2; N-terminus assumed): on RXFP1 [1], the Ki is greater than 10 µM. For the same compound, the EC50 at RXFP1 [2] is greater than 10 µM.
